Measurements from publication PMC7730238, “Temporin-Like Peptides Show Antimicrobial and Anti-Biofilm Activities against Streptococcus mutans with Reduced Hemolysis” (Molecules, 2020).
No end group written: not given here.

Legend:
[1] = system: Human red blood cells (hRBCs); assay type: cell-based
Description: The hemolytic toxicity of the peptides was determined as described. Human red blood cells (hRBCs) were washed with phosphate-buffered saline (PBS, pH 7.2) and centrifuged at 1000× g for 10 min at 4 °C until the supernatant was clear. 4% hRBCs and an equal volume of the peptides with different concentrations were incubated at 37 °C for 1 h. After incubation, the supernatant was collected by centrifugation, and 150 μL was transferred to a new 96-well plate (Corning, New York, NY, USA). The absorbance at 450 nm was measured. The 0.1% Triton X-100 was used as the positive control, and PBS was used as the negative control. The minimum hemolysis concentration (MHC) was defined as the lowest concentration of peptide that causes 10% hemolysis, and HL50 was the lowest concentration that causes 50% hemolysis. CSI was defined as the ratio of HL50 to MIC [31].

[2] = system: MRSA-1, methicillin-resistant S. aureus (clinically isolated, No.1); assay type: cell-based, Staphylococcus aureus; settings: for MIC: -1, methicillin-resistant (clinically isolated, No.1); for MBC: -1, methicillin-resistant (clinically isolated, No.1, 24 h)
Description: (§1) The strains were used in the experiments, including Gram-positive bacteria Staphylococcus aureus (ATCC 25923), Bacillus subtilis (ATCC 6633), Streptococcus mutans (ATCC 25175), Methicillin-resistant Staphylococcus aureus (ATCC 43300), Methicillin-resistant Staphylococcus aureus 1–3 (clinically isolated, number 1–3), Gram-negative bacteria Escherichia coli (ATCC 25922), E. coli (D 31), Pseudomonas aeruginosa (ATCC 15442), P. aeruginosa PAO1 (wild type), and the fungus Candida albicans (ATCC 10231). S. mutans was cultured in Brain Heart Infusion Broth (BHI, Beijing Land Bridge, China) under anaerobic condition; C. albicans was grown in Sabouraud Dextrose Broth (SDB, HuanKai Microbial, Guangzhou, China); and the other bacterial strains were grown in Tryptic Soy Broth (TSB, HuanKai Microbial, Guangzhou, China). All bacteria and fungi were cultivated to the logarithmic phase at 37 °C before experiments were performed.
(§2) The antimicrobial activities of the peptides were measured by the two-fold dilution method. Each strain was inoculated in the medium and cultivated to the logarithmic phase. A series of diluted peptides (concentrations of 3.1–100 μM, 50 μL) were prepared in a 96-well plate (Corning, New York, NY, USA), and the same volume of the bacterial suspension (the final concentration of 1 × 10^6 CFU/mL) was added. After incubation at 37 °C for 18–24 h, the absorbance at 600 nm was measured by using a microplate reader (Multiskan Spectrum, BioTek, Winuski, VT, USA). […] All tests were performed in triplicate independent experiments.
(§3) From the MIC measuring plates, 50 μL of bacteria suspension in the presence of peptides when the concentrations were equal and up to MICs was spread on the BHI agar medium, and incubated at 37 °C for 24 h. The peptide concentration with no bacterial growth was defined as MBC [33].

[3] = system: MRSA-2, methicillin-resistant S. aureus (clinically isolated, No.2); assay type: cell-based, Staphylococcus aureus; settings: for MIC: -2, methicillin-resistant (clinically isolated, No.2); for MBC: -2, methicillin-resistant (clinically isolated, No.2, 24 h)
Description: as §1, §2, §3

[4] = system: MRSA-3, methicillin-resistant S. aureus (clinically isolated, No.3); assay type: cell-based, Staphylococcus aureus; settings: for MIC: -3, methicillin-resistant (clinically isolated, No.3); for MBC: -3, methicillin-resistant (clinically isolated, No.3, 24 h)
Description: as §1, §2, §3

[5] = system: methicillin-resistant S. aureus (ATCC 43300); assay type: cell-based, Staphylococcus aureus; settings: for MIC: ATCC 43300; for MBC: ATCC 43300, 24 h
Description: as §1, §2, §3

[6] = system: Bacillus subtilis (ATCC 6633); assay type: cell-based; settings: for MIC: ATCC 6633; for MBC: ATCC 6633, 24 h
Description: as §1, §2, §3

[7] = system: Candida albicans (ATCC 10231); assay type: cell-based; settings: for MIC: ATCC 10231; for MBC: ATCC 10231, 24 h
Description: as §1, §2, §3

[8] = system: Escherichia coli (ATCC 25922); assay type: cell-based; settings: for MIC: ATCC 25922; for MBC: ATCC 25922, 24 h
Description: as §1, §2, §3

[9] = system: Pseudomonas aeruginosa (ATCC 15442); assay type: cell-based; settings: for MIC: ATCC 15442; for MBC: ATCC 15442, 24 h
Description: as §1, §2, §3

[10] = system: Staphylococcus aureus (ATCC 25923); assay type: cell-based; settings: for MIC: ATCC 25923; for MBC: ATCC 25923, 24 h
Description: as §1, §2, §3

[11] = system: Streptococcus mutans (ATCC 25175); assay type: cell-based; settings: for MIC: ATCC 25175; for MBC: ATCC 25175, 24 h
Description: as §1, §2, §3

[12] = system: E. coli (D31), anti-streptomycin strain; assay type: cell-based, Escherichia coli; settings: 37 °C; for MIC: TSB, 1 × 10^6 CFU/mL, 18–24 h, absorbance 600 nm, triplicate, first value of cell; for MBC: plated from MIC wells on agar, 24 h, no growth, second value of cell
Description: as §1, §2, §3

[13] = system: P. aeruginosa PAO1 (wild type); assay type: cell-based, Pseudomonas aeruginosa; settings: for MIC: PAO1; for MBC: PAO1, 24 h
Description: as §1, §2, §3

[14] = system: S. mutans biofilms; assay type: cell-based, Streptococcus mutans; settings: S. mutans in BHI with 1% sucrose, 24 h anaerobic, CV staining, absorbance 590 nm
Description: CV was used to detect the effects of the peptides on the formation of biofilm and the eradication of mature biofilm. 100 μL of S. mutans in the logarithmic phase was diluted in BHI (containing 1% sucrose) to the concentration of 2 × 10^6 CFU/mL. The suspensions were added to the equal volume of the peptides (the final concentrations of 0.8–12.5 μM). After incubation at 37 °C under anaerobic conditions for 24 h, the supernatant was discarded. The plate was irrigated with PBS carefully to wash away the planktonic bacteria. After fixing with anhydrous methanol for 15 min, 0.5% CV was added to each well for staining the biofilms. The excess CV was washed away by PBS (pH 7.2), and the bound CV was dissolved with anhydrous methanol. A microplate reader (Multiskan Spectrum, BioTek, Winuski, VT, USA) was used to measure the absorbance value of 590 nm. MBIC50 was defined as the lowest peptide concentration that inhibited 50% of biofilm formation.

[15] = system: S. mutans mature biofilms; assay: Mature biofilm eradication, crystal violet; assay type: cell-based, Streptococcus mutans; settings: 24 h mature S. mutans biofilms, 24 h treatment, CV staining, absorbance 590 nm
Description: To evaluate the ability of the peptides to eradicate the mature biofilms of S. mutans, the bacteria (the final concentration of 1 × 10^6 CFU/mL) were seeded in a flat bottom 96-well plate for 24 h to obtain the mature biofilms. The planktonic bacteria were washed away, and the peptides with the concentrations of 3.1–50 μM were added. After treatment for 24 h, CV was used for staining and quantification as described above. The biofilms untreated with the peptides served as the negative control. MBEC50 was defined as the lowest peptide concentration that removed 50% of the mature biofilm.

| Sequence | MIC [2] | MBC [2] | MIC [3] | MBC [3] | MIC [4] | MBC [4] | MIC [5] | MBC [5] | MIC [7] | MBC [7] | MIC [8] | MBC [8] | MIC [9] | MBC [9] | MIC [10] | MBC [10] | MIC [11] | MBC [11] | MIC [13] | MBC [13] | also measured |
| --- | --- | --- | --- | --- | --- | --- | --- | --- | --- | --- | --- | --- | --- | --- | --- | --- | --- | --- | --- | --- | --- |
| FLQRIIGRLGRLF [GHaR8R] | 6.2 µM | 6.2 µM | 3.1 µM | 12.5 µM | 6.2 µM | 12.5 µM | 3.1 µM | 3.1 µM | 12.5 µM | 12.5 µM | 3.1 µM | 3.1 µM | 50 µM | > 50 µM | 1.6 to 3.1 µM | 3.1 µM | 6.2 µM | 6.2 µM | 6.2 µM | 12.5 µM | HL50 relative to that of GHaR [1]: 1–5 times higher; MIC [6]: 12.5 µM; MBC [6]: 12.5 µM; MIC [12]: 12.5 µM; MBC [12]: 25 µM; MBIC50 (lowest peptide concentration that inhibited 50% of biofilm formation) [14]: 1.6 µM; MBEC50 (lowest peptide concentration that removed 50% of the mature biofilm) [15]: 12.5 µM; time to complete eradication: < 15 min |
| FLQRIIGAWGRLF [GHaR9W] | 6.2 µM | 12.5 µM | 6.2 µM | 12.5 µM | 6.2 µM | 12.5 µM | 6.2 µM | 12.5 µM | 25 µM | 25 µM | 12.5 µM | 12.5 µM | > 50 µM | > 50 µM | 3.1 µM | 6.2 µM | 6.2 µM | 6.2 µM | 25 µM | 50 µM | HL50 relative to that of GHaR [1]: 1–5 times higher |
| FLQRIIRALGRLF [GHaR7R] | 6.2 µM | 25 µM | 6.2 µM | 50 µM | 6.2 µM | 25 µM | 3.1 µM | 6.2 µM | 25 µM | 25 µM | 3.1 µM | 12.5 µM | > 50 µM | > 50 µM | 3.1 µM | 3.1 µM | 6.2 µM | 12.5 µM | > 50 µM | > 50 µM | MIC [6]: > 50 µM; MBC [6]: > 50 µM; MIC [12]: 12.5 µM; MBC [12]: 50 µM; MBIC50 (lowest peptide concentration that inhibited 50% of biofilm formation) [14]: 6.2 µM; MBEC50 (lowest peptide concentration that removed 50% of the mature biofilm) [15]: 25 µM |
| FLQRIIGARGRLF [GHaR9R] | > 50 µM | > 50 µM | > 50 µM | > 50 µM | > 50 µM | > 50 µM | > 50 µM | > 50 µM | > 50 µM | > 50 µM | > 50 µM | > 50 µM | > 50 µM | > 50 µM | 6.2 µM | 12.5 µM | > 50 µM | > 50 µM | > 50 µM | > 50 µM | MIC [6]: > 50 µM; MBC [6]: > 50 µM |
| FLQRIIGALGRLF [GHaR] | 3.1 µM | 25 µM | 6.2 µM | 12.5 µM | 3.1 µM | 6.2 µM | 3.1 µM | 3.1 µM | 12.5 µM | 50 µM | 6.2 µM | 6.2 µM | 6.2 µM | 6.2 µM | 1.6 µM | 1.6 µM | 3.1 µM | 6.2 µM | 25 µM | 50 µM | – |
| FLQRIRGALGRLF [GHaR6R] | 12.5 µM | 25 µM | 12.5 µM | 25 µM | 6.2 µM | 25 µM | 6.2 µM | 12.5 µM | 50 µM | 50 µM | 12.5 µM | 12.5 µM | > 50 µM | > 50 µM | 3.1 µM | 12.5 µM | 12.5 µM | 12.5 µM | 3.1 µM | 25 µM | HL50 relative to that of GHaR [1]: 1–5 times higher; MIC [6]: 25 µM; MBC [6]: 50 µM; MIC [12]: 25 µM; MBC [12]: 50 µM; MBIC50 (lowest peptide concentration that inhibited 50% of biofilm formation) [14]: 6.2 µM; MBEC50 (lowest peptide concentration that removed 50% of the mature biofilm) [15]: 25 µM; time to complete eradication: < 15 min |
